Assay results reported in US9314510B2, “Human laminin α2 chain LG3 domain and active peptides promoting cell adhesion, spreading, migration, and neurite outgrowth” (SNU R&DB Foundation, priority 2011, dated 2016).
Ends that are not written are not given here.

B1: rLG3: recombinant His6-tagged human laminin α2 chain LG3 domain, amino acids 2537 to 2745 (protein, listed as Homo sapiens)
chain: VELSPVPIDVGTEINLSFSTKNESGIILLGSGGTPAPPRRKRRQTGQAYYVILLNRGRLEVHLSTGARTMRKIVIRPEPNLFHDGREHSVHVERTRGIFTVQVDENRRYMQNLTVEQPIEVKKLFVGGAPPEFQPSPLRNIPPFEGCIWNLVINSVPMDFARPVSFKNADIGRCAHQKLREDEDGAAPAEIVIQPEPVPTPAFPTPTPV
modifications: His6 tag

Assays:
[1] = system: PC12 cells; experiment: Cell migration assay (transwell migration chambers); assay type: cell-based, rat; conditions: transwell filters coated with laminin 5 μg/mL, rLG proteins 25 μg/mL or peptides 62.5 μg/mL, 24 h
Method: Cell migration assays were performed using transwell migration chambers of 8 μm in pore size (Corning Inc., NY) as described in a paper published previously by the present inventors (Kim, J. M., Min, S. K., Kim, H., Kang, H. K., Jung, S. Y., Lee, S. H., Choi, Y., Roh, S., Jeong, D., and Min, B. M. (2007) Int. J. Mol. Med.).
The lower sides of transwell filters were coated with laminin (5 μg/mL) or rLG proteins (25 μg/mL) for 12 h at 4° C. The lower sides of transwell filters were blocked with 1% BSA in PBS for 1 h at 37° C. Cells were suspended at a density of 4×10^5 cells/mL in RPMI 1640 medium containing 0.5% FBS and 0.1% BSA. 100 μL of this suspension was seeded in the upper chamber of the transwell filter. Cells were allowed to migrate for 24 h at 37° C. and then fixed with 10% formalin for 15 min and stained with 0.5% crystal violet. Non-migrated cells in the upper chamber of transwell filters were removed with a cotton swab, viewed under a light microscope, and counted.
(§1) Specifically, to observe cell adhesion, spreading, migration, and neurite outgrowth promotion, the methods described in Experimental examples <2-1> to <2-3> were used and PC12 cells were cultured on plates coated with laminin (5 μg/mL), rLG3 (25 μg/mL), and rLG3-M1 (25 μg/mL) and observed. To observe cell adhesion, PC12 cells were incubated on the coated plates for 1 h and to observe cell spreading, PC12 cells were incubated on the coated plates for 3 h. To observe cell migration, PC12 cells were incubated on the coated plates for […].

[2] = system: PC12 cells; experiment: Cell spreading assay on coated plates (cell surface area); assay type: cell-based, rat; conditions: 3 h, laminin 5 μg/mL, rLG proteins 25 μg/mL, peptides 62.5 μg/mL
Method: To determine cell spreading assays, the cells cultured on plates coated with each rLG domain protein for 1 h or 3 h in Experimental example <2-1> were fixed with 10% formalin. Then, the fixed cells were stained with 0.05% crystal violet for 1 h and plates were gently washed with PBS three times. The surface area of cells was measured with Image-Pro plus software (Version 4.5; Media Cybernetics, Silver Spring, Md.).
The present inventors compared the cellular activities of Ln2-LG3-P2 peptide to scrambled peptide (SEQ ID NO:20, NWEIRCIPGNPF) of Ln2-LG3-P2 peptide and Ln2-LG3-P1 peptide to Ln2-LG3-P5 peptide at a concentration of 62.5 μg/mL where the cell adhesion activity was the maximum. […] PC12 cells were cultured on plates which were coated in the same way for 3 h in serum-free medium and the cell spreading was observed.
as §1
To measure cell adhesion, spreading, migration, and neurite outgrowth promotive activities of PC12 cells using the prepared synthetic peptides that are N- and C-terminal truncated or C-terminal added peptides of the Ln2-LG3-P2 peptide, peptides described in Table 1 were coated onto plates at 62.5 μg/mL and PC12 cells were seeded thereon.

[3] = target: T1, integrin β1 (Rattus norvegicus, UniProt P49134); experiment: Immunoprecipitation of PKCα, PKCδ and FAK with His6-rLG3 or integrin β1; assay type: cell-based; conditions: PC12 cells on coated dishes, 30 min
T1 construct: whether PKCα and -δ exist as associated complexes in PC12 cells seeded on laminin-, rLG3-, and Ln2-LG3-P2-coated dishes; endogenous in cells; host or cells: PC12 cells
T1 sequence (P49134 21-799): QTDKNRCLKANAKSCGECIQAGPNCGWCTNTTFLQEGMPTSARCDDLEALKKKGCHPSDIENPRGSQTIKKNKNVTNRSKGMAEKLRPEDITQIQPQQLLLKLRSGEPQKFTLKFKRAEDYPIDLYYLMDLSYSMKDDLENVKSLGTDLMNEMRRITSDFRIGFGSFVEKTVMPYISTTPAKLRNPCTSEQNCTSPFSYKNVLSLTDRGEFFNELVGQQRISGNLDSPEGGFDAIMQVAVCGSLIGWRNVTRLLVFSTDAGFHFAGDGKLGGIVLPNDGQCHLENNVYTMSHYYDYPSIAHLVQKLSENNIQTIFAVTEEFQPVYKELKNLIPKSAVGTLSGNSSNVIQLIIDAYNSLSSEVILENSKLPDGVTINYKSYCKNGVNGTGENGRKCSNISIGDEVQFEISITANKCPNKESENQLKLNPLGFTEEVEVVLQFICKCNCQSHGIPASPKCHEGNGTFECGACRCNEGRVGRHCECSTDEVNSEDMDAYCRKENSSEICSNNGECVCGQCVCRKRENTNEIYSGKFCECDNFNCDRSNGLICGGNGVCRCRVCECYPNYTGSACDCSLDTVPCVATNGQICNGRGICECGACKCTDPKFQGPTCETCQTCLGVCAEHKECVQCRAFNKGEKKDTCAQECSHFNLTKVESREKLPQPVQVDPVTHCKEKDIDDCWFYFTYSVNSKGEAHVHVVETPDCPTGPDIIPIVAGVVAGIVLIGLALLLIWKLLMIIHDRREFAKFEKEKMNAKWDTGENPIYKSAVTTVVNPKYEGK
Method: Specifically, for immunoprecipitation, PC12 cells were starved for 12 h with RPMI 1640 medium containing 0.1% FBS. Cells were detached and resuspended in serum-free medium with 0.1% BSA. PC12 cells (4×10^6 cells/100-mm dish) were seeded on laminin (5 μg/mL)-, rLG3 (25 μg/mL)-, or Ln2-LG3-P2 (25 μg/well)-coated dishes and allowed to attach for 30 min at 37° C. After incubation, cells were washed with ice-cold PBS, lysed with RIPA buffer containing a protease inhibitor cocktail. The lysates were centrifuged and the supernatants were preincubated with 50 μL of immobilized protein G beads (Upstate Biotechnology Inc.) for 1 h at 4° C. to remove nonspecific binding. The supernatants were incubated with anti-His6 (Roche, Mannheim, Germany), anti-integrin (Santa Cruz Biotechnology), or anti-PKCδ (Santa Cruz Biotechnology) antibodies for 2 h at 4° C. The immunocomplexes were precipitated with immobilized protein G beads for 12 h at 4° C. After centrifugation, beads carrying the immune complexes were washed four times with RIPA buffer. Immunoprecipitates were resuspended in SDS sample buffer, boiled for 5 min, and analysed by Western blotting.

[4] = system: FAK Tyr-397; experiment: FAK phosphorylation by western blotting; assay type: cell-based, rat; conditions: PC12 cells on coated dishes; 15, 30, 60 min
Method: For measuring FAK phosphorylation, specifically, PC12 cells were starved for 12 h by replacing RPMI 1640 medium with 0.1% FBS. PC12 cells (2×10^6 cells) were plated on 60-mm dishes precoated with laminin (5 μg/mL), rLG3 (25 μg/mL), or Ln2-LG3-P2 (25 μg/well), and allowed to adhere for the indicated times (15 min, 30 min, and 60 min). Cells were washed with ice-cold PBS and lysed with 200 μL of RIPA buffer (50 mM Tris-HCl, pH 7.4, 150 mM NaCl, 1 mM EDTA 1% Triton X-100, 1 mM PMSF, 2 mM Na3VO4, 1 mM glycerol phosphate) containing a protease inhibitor cocktail. RIPA lysates were denatured using SDS sample buffer (50 mM Tris/HCl, pH 6.8, 2% SDS, 10% glycerol, 0.1% bromophenol blue, 50 mM dithiothreitol) and analysed by SDS-PAGE. The separated proteins were electroblotted onto an Immobilon-P membrane (Millipore, Bedford, Mass.) and probed with primary antibodies to FAK Tyr-397 (Biosource, Camarillo, Calif.), FAK (Upstate Biotechnology Inc., Lake Placid, N.Y.). All blots were then detected with HRP-conjugated secondary antibodies (Cell Signaling). Signals were detected by ECL (iNtRON Biotechnology, Korea).

[5] = system: PKCδ; experiment: Tyrosine phosphorylation of PKCδ (immunoprecipitation and Western blotting); assay type: cell-based, rat; conditions: PC12 cells on coated dishes, 30 min
Method: PC12 cells were incubated on dishes coated with laminin, rLG3, or the Ln2-LG3-P2 peptide for 30 min and the interaction of PKCδ with phosphotyrosine was examined using immunoprecipitation and Western blotting.

Molecule	cell migration [1]	cell spreading [2]	proteins in integrin β1 immunoprecipitates [3]	time at which FAK phosphorylation levels at Tyr-397 peaked [4]	tyrosine phosphorylation of PKCδ [5]	proteins in anti-His6 immunoprecipitates [3]
RNIPPFEGCIWN (RNIPPFEGCIWN-NH2; listed as Homo sapiens) [Ln2-LG3-P2, 12-mer peptide, position 2675 to 2686 in human laminin α2 chain]	comparable to that of rLG3	comparable to that of rLG3	PKCα, PKCδ, and FAK were also observed	15 min	increased	–
laminin [reference compound]	promoted cell migration	promoted cell spreading	PKCα, PKCδ, and FAK were also observed	15 min	increased	–
B1	induced cell migration significantly	induced cell spreading	PKCα, PKCδ, and FAK were also observed	15 min	increased	PKCα, PKCδ, and FAK were observed
